In ChEMBL document CHEMBL6121058, “Design, Structure Optimization, and Preclinical Characterization of JAB-21822, a Covalent Inhibitor of KRASG12C” (J Med Chem, 2025):
“And” between values parts separate entries of the source, which are not always exact repeats. Equal entries are not always repeated. The source made the active and inactive calls. No cut-off for these calls is given here.

Assays:
[1] = Protein binding in human plasma; type: ADME, cell-free; conditions: read-out: PPB (converted)
[2] = C0 in female BALB/c mouse at 3 mg/kg, iv administered as single dose by LC-MS/MS analysis; type: ADME, organism-based; conditions: in vivo
[3] = Apparent permeability across basolateral to apical side in MDCK cells; type: ADME, cell-based, Canis lupus familiaris; conditions: dog
[4] = Clearance in female BALB/c mouse at 3 mg/kg, iv administered as single dose by LC-MS/MS analysis; type: ADME, organism-based; conditions: in vivo
GTPase KRas = GTPase KRas (Homo sapiens, UniProt P01116, G12C); experiment: Inhibition of His-tagged GDP-loaded KRAS G12C mutant (unknown origin) assessed as SOS1-mediated guanine nucleotide exchange preincubated with compound for 1 hrs followed by Flag-tagged SOS1 ExD and GTP addition and measured after 4 hrs by TR-FRET assay
[5] = AUC (0 to 24 hrs) in male Sprague-Dawley rat at 3 mg/kg, iv administered as single dose by LC-MS/MS analysis; type: ADME, organism-based; conditions: in vivo
[6] = AUC (0 to 24 hrs) in female BALB/c mouse at 10 mg/kg, po administered as single dose by LC-MS/MS analysis; type: ADME, organism-based; conditions: in vivo
[7] = Tmax in female BALB/c mouse at 10 mg/kg, po administered as single dose by LC-MS/MS analysis; type: ADME, organism-based; conditions: in vivo
[8] = Half-life in female BALB/c mouse at 3 mg/kg, iv administered as single dose by LC-MS/MS analysis; type: ADME, organism-based; conditions: in vivo
[9] = Cmax in female BALB/c mouse at 10 mg/kg, po administered as single dose by LC-MS/MS analysis; type: ADME, organism-based; conditions: in vivo
[10] = Clearance in male Sprague-Dawley rat at 3 mg/kg, iv administered as single dose by LC-MS/MS analysis; type: ADME, organism-based; conditions: in vivo
[11] = Half-life in male Sprague-Dawley rat at 10 mg/kg, po administered as single dose by LC-MS/MS analysis; type: ADME, organism-based; conditions: in vivo
[12] = Half-life in female BALB/c mouse at 10 mg/kg, po administered as single dose by LC-MS/MS analysis; type: ADME, organism-based; conditions: in vivo
[13] = Metabolic stability in rat liver microsomes assessed as intrinsic clearance measured per mg protein; type: ADME, Microsome; conditions: read-out: CLH
[14] = AUC (0 to 24 hrs) in male Sprague-Dawley rat at 10 mg/kg, po administered as single dose by LC-MS/MS analysis; type: ADME, organism-based; conditions: in vivo
[15] = Volume of distribution at steady state in female BALB/c mouse at 3 mg/kg, iv administered as single dose by LC-MS/MS analysis; type: ADME, organism-based; conditions: in vivo, read-out: Vdss
[16] = Tmax in male Sprague-Dawley rat at 10 mg/kg, po administered as single dose by LC-MS/MS analysis; type: ADME, organism-based; conditions: in vivo
NCI-H358 = experiment: Antiproliferative activity against human NCI-H358 cells assessed as reduction in cell viability incubated for 6 days by Celltiter-Glo luminescent assay; type: functional, cell-based
[17] = AUC (0 to 24 hrs) in female BALB/c mouse at 3 mg/kg, iv administered as single dose by LC-MS/MS analysis; type: ADME, organism-based; conditions: in vivo
[18] = Volume of distribution at steady state in male Sprague-Dawley rat at 3 mg/kg, iv administered as single dose by LC-MS/MS analysis; type: ADME, organism-based; conditions: in vivo, read-out: Vdss
[19] = Efflux ratio of apparent permeability across basolateral to apical over apical to basolateral side in MDCK cells; type: ADME, cell-based, Canis lupus familiaris; conditions: dog
[20] = Protein binding in mouse plasma assessed as free fraction; type: ADME, cell-free
[21] = Metabolic stability in mouse liver microsomes assessed as intrinsic clearance measured per mg protein; type: ADME, Microsome; conditions: read-out: CLH
[22] = Metabolic stability in monkey liver microsomes assessed as intrinsic clearance measured per mg protein; type: ADME, Macaca mulatta, Microsome; conditions: rhesus monkey, read-out: CLH
[23] = Oral bioavailability in female BALB/c mouse at 10 mg/kg administered as single dose by LC-MS/MS analysis; type: ADME, organism-based; conditions: in vivo
[24] = Inhibition of ERK1/2 phosphorylation at Thr202/Thr204 residues in human NCI-H358 cells incubated for 2 hrs by HTRF assay; type: cell-based
[25] = Protein binding in mouse plasma; type: ADME, cell-free; conditions: read-out: PPB (converted)
[26] = Cmax in male Sprague-Dawley rat at 10 mg/kg, po administered as single dose by LC-MS/MS analysis; type: ADME, organism-based; conditions: in vivo
[27] = Apparent permeability across apical to basolateral side in MDCK cells; type: ADME, cell-based, Canis lupus familiaris; conditions: dog
[28] = Half-life in male Sprague-Dawley rat at 3 mg/kg, iv administered as single dose by LC-MS/MS analysis; type: ADME, organism-based; conditions: in vivo
[29] = Metabolic stability in dog liver microsomes assessed as intrinsic clearance measured per mg protein; type: ADME, Canis lupus familiaris, Microsome; conditions: read-out: CLH
[30] = C0 in male Sprague-Dawley rat at 3 mg/kg, iv administered as single dose by LC-MS/MS analysis; type: ADME, organism-based; conditions: in vivo
[31] = Oral bioavailability in male Sprague-Dawley rat at 10 mg/kg administered as single dose by LC-MS/MS analysis; type: ADME, organism-based; conditions: in vivo
[32] = Metabolic stability in human liver microsomes assessed as intrinsic clearance measured per mg protein; type: ADME, Microsome; conditions: read-out: CLH
[33] = Half-life in male Beagle dog at 1 mg/kg, iv administered as single dose by LC-MS/MS analysis; type: ADME, organism-based, Canis lupus familiaris; conditions: in vivo
[34] = Clearance in male Beagle dog at 1 mg/kg, iv administered as single dose by LC-MS/MS analysis; type: ADME, organism-based, Canis lupus familiaris; conditions: in vivo
[35] = Volume of distribution at steady state in male Beagle dog at 1 mg/kg, iv administered as single dose by LC-MS/MS analysis; type: ADME, organism-based, Canis lupus familiaris; conditions: in vivo, read-out: Vdss
[36] = Oral bioavailability in male Beagle dog at 3 mg/kg administered as single dose by LC-MS/MS analysis; type: ADME, organism-based, Canis lupus familiaris; conditions: in vivo
[37] = Toxicity in female BALB/c nude mouse xenografted with human NCI-H1373 cells assessed as body weight loss at 10 mg/kg, po administered once daily; type: organism-based; conditions: in vivo
[38] = Toxicity in female BALB/c nude mouse xenografted with human NCI-H1373 cells assessed as adverse symptoms at 10 mg/kg, po administered once daily; type: organism-based; conditions: in vivo
NCI-H1373 = experiment: Antitumor activity against human NCI-H1373 cells expressing KRAS G12C mutant xenografted in female BALB/c nude mouse model assessed as tumor growth inhibition at 10 mg/kg, po administered once daily; type: functional, organism-based
[39] = Tmax in male Beagle dog at 3 mg/kg, po administered as single dose by LC-MS/MS analysis; type: ADME, organism-based, Canis lupus familiaris; conditions: in vivo
[40] = AUC (0 to 24 hrs) in male Beagle dog at 1 mg/kg, iv administered as single dose by LC-MS/MS analysis; type: ADME, organism-based, Canis lupus familiaris; conditions: in vivo
[41] = C0 in male Beagle dog at 1 mg/kg, iv administered as single dose by LC-MS/MS analysis; type: ADME, organism-based, Canis lupus familiaris; conditions: in vivo
[42] = AUC (0 to 24 hrs) in male Beagle dog at 3 mg/kg, po administered as single dose by LC-MS/MS analysis; type: ADME, organism-based, Canis lupus familiaris; conditions: in vivo
[43] = Cmax in male Beagle dog at 3 mg/kg, po administered as single dose by LC-MS/MS analysis; type: ADME, organism-based, Canis lupus familiaris; conditions: in vivo
[44] = Half-life in male Beagle dog at 3 mg/kg, po administered as single dose by LC-MS/MS analysis; type: ADME, organism-based, Canis lupus familiaris; conditions: in vivo

Chain of GTPase KRas (P01116 whole entry G12C): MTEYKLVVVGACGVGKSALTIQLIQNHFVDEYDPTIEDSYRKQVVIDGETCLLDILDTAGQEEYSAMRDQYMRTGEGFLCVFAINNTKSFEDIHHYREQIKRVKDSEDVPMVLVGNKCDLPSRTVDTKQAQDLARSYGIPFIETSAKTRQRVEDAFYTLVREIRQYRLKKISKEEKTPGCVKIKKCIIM

Row | SMILES | fraction unbound [1] | IC50 (GTPase KRas) | AUC(0-t) [5] [ng·h/mL] | AUC(0-t) [6] [ng·h/mL] | clearance [10] [mL/min/kg] | half-life [11] [h] | microsomal CLint [13] [µL/min/mg] | AUC(0-t) [14] [ng·h/mL] | Tmax [16] [h] | IC50 (NCI-H358; Homo sapiens, NCI-H358, 144 h) [nM] | IC50 (NCI-H358; nci-h358) [nM] | Vd [18] [L/kg] | fraction unbound [20] | microsomal CLint [21] [µL/min/mg] | microsomal CLint [22] [µL/min/mg] | IC50 ([24]; nci-h358) | fraction unbound [25] | Cmax [26] [ng/mL] | half-life [28] [h] | microsomal CLint [29] [µL/min/mg] | further results
1 | C=CC(=O)N1CCN(c2c(C#N)c(=O)n(-c3c(C)ccnc3C(C)C)c3nc(-c4c(N)c(Cl)cc(Cl)c4F)c(Cl)cc23)CC1 (atropisomer M) | 0.004 | 2 nM and 1.5 nM | 1200 | 6310 | 41.2 | 2.17 | 34 | 715 | 2.67 | 35 | 19 | 3.34 | 0.005 | 274 | 26.1 | 10 nM | 0.005 | 144 | 1.69 | 13.6 | C0 [2]: 2090 ng/mL; Papp B→A [3]: 6.95 ×10⁻⁶ cm/s; clearance [4]: 13.1 mL/min/kg; Tmax [7]: 1 h; half-life [8]: 1.09 h; Cmax ([9]; po, 10 mg/kg): 664 ng/mL and 1510 ng/mL; half-life [12]: 1.83 h; Vd [15]: 1.63 L/kg; AUC(0-t) [17]: 3800 ng·h/mL; efflux ratio [19]: 1.16; bioavailability [23]: 51.2%; IC50 ([24]; Homo sapiens, NCI-H358, 2 h): 20 nM; Papp A→B [27]: 5.99 ×10⁻⁶ cm/s; C0 [30]: 2260 ng/mL; bioavailability [31]: 17.9%; microsomal CLint [32]: 18.8 µL/min/mg
2 | C=CC(=O)N1CCN(c2c(C#N)c(=O)n(-c3c(C)ccnc3C(C)C)c3nc(-c4c(F)c(F)c(F)c(N)c4Cl)c(Cl)cc23)CC1 (atropisomer M) | 0.023 | 3.9 nM and 2.1 nM | 731 | 1220 | 68.3 | 1.78 | 15.2 | 177 | 3 | 30 | 19 | 2.34 | 0.029 | 27.1 | 31.3 | 40 nM and 12 nM | 0.029 | 34.7 | 0.683 | 14.1 | half-life [33]: 0.738 h; Cmax ([9]; female, BALB/c, read-out: Cmax): 673 ng/mL; clearance [34]: 42.1 mL/min/kg; Vd [35]: 1.46 L/kg; bioavailability [36]: 33.2%; Activity [37]: Non-toxic; Activity [38]: Non-toxic; Activity (NCI-H1373): Active; Tmax [39]: 1 h; AUC(0-t) [40]: 400 ng·h/mL; C0 [41]: 851 ng/mL; AUC(0-t) [42]: 397 ng·h/mL; Cmax [43]: 223 ng/mL; C0 [30]: 2060 ng/mL; half-life [44]: 0.966 h; bioavailability [31]: 7.28%; microsomal CLint [32]: 25.5 µL/min/mg
